The source of these data is PubChem BioAssay (NCI).

Some test systems named below: M19-MEL melanoma; DMS 273 small cell lung; KM20L2 colon; XF 498 CNS; RXF-631 renal.
Assay in all cases: growth of human tumour cells (NCI), 48 h

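Cultured in 96-well plates, cells were exposed to test compound for 48 hours across five concentrations. Abbreviation: GI50, concentration required for 50% inhibition of growth. Definition used: TGI = concentration required for complete inhibition of growth.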

For the compound `O=Cc1ccc2c(c1-c1c(C=O)ccc3c1OCO3)OCO2`, the TGI in the assay with M19-MEL melanoma, in the assay on DMS 273 small cell lung and with KM20L2 colon was greater than 100 µM in each case.

For the compound `CC(=O)[O][Ga]([Br])[O]C(C)=O`, the GI50 is greater than 100000 nM with XF 498 CNS, greater than 100 µM in the assay with M19-MEL melanoma, greater than 100 µM in the assay on DMS 273 small cell lung and greater than 100 µM with KM20L2 colon. Besides, the TGI in the assay on XF 498 CNS, in the assay on M19-MEL melanoma, in the assay with DMS 273 small cell lung and with KM20L2 colon was greater than 100 µM in each case.

Regarding `CCCO/S(=N\S(=O)(=O)c1ccccc1)c1ccccc1[N+](=O)[O-]` (stereo unspecified), the TGI in the assay with XF 498 CNS, in the assay on M19-MEL melanoma, with RXF-631 renal, with DMS 273 small cell lung and in the assay with KM20L2 colon was greater than 100 µM each time.

Take `N#CC(C(=O)C(=O)Nc1ccc(Cl)cc1)c1ccccc1` (stereo unspecified): the TGI in the assay on M19-MEL melanoma, in the assay on RXF-631 renal, with DMS 273 small cell lung and in the assay on KM20L2 colon was greater than 100 µM throughout.

As for `CC(C)N(CCn1c2c3ccccc3ccc2c2oc(=O)c3ccccc3c21)C(C)C`, the TGI in the assay on XF 498 CNS, with M19-MEL melanoma, in the assay on RXF-631 renal and in the assay on KM20L2 colon was greater than 100 µM each time.

With `CCOP(=O)(OCC)OC1C=CC2CCC1C2` (stereo unspecified), the TGI in the assay on XF 498 CNS, in the assay with RXF-631 renal, in the assay with DMS 273 small cell lung and in the assay with KM20L2 colon was greater than 100 µM throughout.

Regarding `S=c1[nH]c(=S)c2nnn(-c3ccccc3)c2[nH]1`, the TGI with XF 498 CNS, in the assay with M19-MEL melanoma, in the assay on DMS 273 small cell lung and in the assay on KM20L2 colon was greater than 100 µM each time.

As for `Cc1cc(S(=O)(=O)O)c(NC(=O)C(=O)Cc2cc(=O)oc3cc(O)ccc23)cc1Cl`, the TGI with M19-MEL melanoma, with RXF-631 renal, in the assay on DMS 273 small cell lung and with KM20L2 colon was greater than 100 µM throughout.

On to `CC1COC(C)(C)P(=O)(c2ccccc2)C1` (stereo unspecified), for which the TGI in the assay with XF 498 CNS, in the assay on M19-MEL melanoma, with DMS 273 small cell lung and in the assay on KM20L2 colon was greater than 100 µM each time.

For the compound `CC(C)C(=O)NS(=O)(=O)c1ccccc1`, the TGI in the assay with XF 498 CNS, in the assay on M19-MEL melanoma, with RXF-631 renal and in the assay on KM20L2 colon was greater than 100 µM in each case.

Regarding `CCC1CCc2c(c(=O)oc3c2cc(OC)c2cccc(OC)c23)C1` (stereo unspecified), the TGI with XF 498 CNS is 78.6 µM; with M19-MEL melanoma it was greater than 100 µM; in the assay on DMS 273 small cell lung it was greater than 100 µM; in the assay with KM20L2 colon, greater than 100 µM.

With `O=[N+]([O-])c1ccc(N2N=C(c3ccc(NCc4nc5ccccc5[nH]4)cc3)CC2c2ccco2)cc1` (stereo unspecified), the TGI in the assay with M19-MEL melanoma was greater than 100 µM; in the assay with DMS 273 small cell lung it was 51.8 µM.

In the case of `Cc1ccc(NC(=O)CSc2nnc(-c3ccc(N=Cc4ccc(Cl)cc4)cc3)o2)cc1`, the TGI with XF 498 CNS, with M19-MEL melanoma, with DMS 273 small cell lung and with KM20L2 colon was greater than 100 µM in each case.

Consider `Cc1c(/C=N/NC(=O)c2ccc(Cl)cc2)c(=O)n(-c2ccccc2)n1C`, for which the TGI with M19-MEL melanoma, in the assay with DMS 273 small cell lung and in the assay with KM20L2 colon was greater than 100 µM throughout.

With `COc1c[c]([Hg][O]C(C)=O)c(OC)c(NC(=O)CC(C)=O)[c]1[Hg][O]C(C)=O`, the GI50 in the assay on XF 498 CNS is 1650 nM; with M19-MEL melanoma, 8.85 µM; in the assay on DMS 273 small cell lung, 13.6 µM; in the assay on KM20L2 colon, 14.2 µM. Also, the TGI in the assay with XF 498 CNS was 3.2 µM; with M19-MEL melanoma, 22 µM; in the assay with DMS 273 small cell lung, 36.7 µM; with KM20L2 colon, 30.9 µM.

In the case of `Cc1nc([N+](=O)[O-])cn1CC(=N)N`, the TGI in the assay on M19-MEL melanoma, in the assay with RXF-631 renal, in the assay with DMS 273 small cell lung and in the assay on KM20L2 colon was greater than 100 µM each time.

For the compound `C/C(CC(=O)Nc1cccc(Cl)c1C)=N\NC(=O)c1ccncc1`, the TGI in the assay on XF 498 CNS, in the assay on M19-MEL melanoma, with DMS 273 small cell lung and with KM20L2 colon was greater than 100 µM in each case.

Regarding `CCCN1CN(C(C(=O)N[C@@H]2C(=O)N3C2SC(C)(C)C3C(=O)O)c2ccc(O)cc2)CSC1=S` (stereo partly specified), the TGI in the assay on XF 498 CNS, in the assay with M19-MEL melanoma, in the assay with DMS 273 small cell lung and in the assay on KM20L2 colon was greater than 100 µM in each case.

Consider `COc1cc(C=O)c(-c2cc(OC)c(OC)cc2C=O)cc1OC`, for which the TGI in the assay on M19-MEL melanoma, with DMS 273 small cell lung and in the assay on KM20L2 colon was greater than 100 µM in each case.

Turning to `CN[C@@H](C)[C@@H](NC)c1ccccc1`, the TGI in the assay on M19-MEL melanoma, in the assay on RXF-631 renal and in the assay with DMS 273 small cell lung was greater than 100 µM in each case.

Turning to `O=C1OCC2C1C1c3ccccc3C(O)c3ccccc3C21` (stereo unspecified), the TGI in the assay on XF 498 CNS, in the assay with M19-MEL melanoma, in the assay with RXF-631 renal and with KM20L2 colon was greater than 100 µM each time.

As for `O=C(/C=C/c1ccccc1Cl)NC1C=Nc2ccc([N+](=O)[O-])cc2NC1` (stereo unspecified), the TGI in the assay on XF 498 CNS, in the assay on M19-MEL melanoma, in the assay on DMS 273 small cell lung and in the assay on KM20L2 colon was greater than 100 µM in each case.
